Test results reported in ChEMBL document CHEMBL5058642, “Data for DCP probe TP-051” (2022).

Assays:
Rattus norvegicus [1] = species on record: Rattus norvegicus; assay: Serotonin (5-Hydroxytryptamine) 5-HT2, Non-Selective Eurofins-Panlabs radioligand binding assay; type: protein assay; conditions: Compound concentration 10.0 uM
[2] = target: Delta-type opioid receptor (Homo sapiens) (UniProt P41143); conditions: Compound concentration 10.0 uM
[3] = GPCRScan assay: inhibition of GABA/PBR; parameters: species or system Rattus norvegicus; radioligand conc. used [nm] 0.3 – 2.0, parental cells brain tissue
Homo sapiens [4] = species on record: Homo sapiens; assay: Inhibition of Nicotinic Acetylcholine at compound concentration of 10.0 uM in the Eurofins-Panlabs radioligand binding assay (Eurofins_assay_258590); type: protein-complex assay; conditions: Compound concentration 10.0 uM
[5] = target: Muscarinic acetylcholine receptor M4 (Homo sapiens) (UniProt P08173); conditions: Compound concentration 10.0 uM
[6] = target: C5a anaphylatoxin chemotactic receptor 1 (Homo sapiens) (UniProt P21730); assay: Anaphylatoxin C5a Eurofins-Panlabs radioligand binding assay; conditions: Compound concentration 10.0 uM
[7] = target: GABA-A receptor; anion channel (Rattus norvegicus) (UniProt O09028+P15431+P18506+P18508+P19969+P20236+P23574+P23576+P28471+P28473+P30191+P62813+P63079+P63138+Q91ZM7+Q9ES14); conditions: Compound concentration 10.0 uM
[8] = target: Vasopressin V2 receptor (Homo sapiens) (UniProt P30518); assay: Inhibition of Vasopressin V2 at 10 µM in the Eurofins-Panlabs radioligand binding assay (Eurofins_assay_287610); parameters: ligand concentration 4 nM; conditions: Compound concentration 10.0 uM
D(4) dopamine receptor = D(4) dopamine receptor (Homo sapiens, UniProt P21917); assay: GPCRScan assay: inhibition of D4; parameters: radioligand conc. used [nm] 0.6 – 1.7, parental cells Stable HEK
[9] = target: Neuromedin-K receptor (Homo sapiens) (UniProt P29371); assay: Tachykinin NK3 Eurofins-Panlabs radioligand binding assay; conditions: Compound concentration 10.0 uM
Neuromedin-K receptor (Homo sapiens), sequence (P29371 whole entry): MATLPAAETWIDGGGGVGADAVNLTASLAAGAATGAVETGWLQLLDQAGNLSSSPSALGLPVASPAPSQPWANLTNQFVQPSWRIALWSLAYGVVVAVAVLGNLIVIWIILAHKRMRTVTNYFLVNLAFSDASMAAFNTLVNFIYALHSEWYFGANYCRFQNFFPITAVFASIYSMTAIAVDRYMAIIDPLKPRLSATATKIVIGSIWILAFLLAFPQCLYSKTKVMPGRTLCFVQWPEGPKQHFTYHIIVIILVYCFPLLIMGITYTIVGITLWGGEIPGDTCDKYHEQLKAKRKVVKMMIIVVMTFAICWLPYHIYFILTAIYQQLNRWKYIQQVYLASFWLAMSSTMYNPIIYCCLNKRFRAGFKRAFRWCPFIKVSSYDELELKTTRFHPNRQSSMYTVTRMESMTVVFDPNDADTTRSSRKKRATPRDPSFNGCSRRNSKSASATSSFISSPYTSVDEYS

Homo sapiens [10] = species on record: Homo sapiens; assay: Protein Serine/Threonine Kinase, MAPK14 (p38α) Eurofins-Panlabs enzyme assay; parameters: substrate with concentration 10 µg/mL Myelin Basic Protein (MBP), incubation time 60 min, incubation temperature 25 °C; conditions: Compound concentration 10.0 uM
[11] = target: Interstitial collagenase (Homo sapiens) (UniProt P03956); assay: Inhibition of Peptidase, Matrix Metalloproteinase-1 (MMP-1) at 10 µM in the Eurofins-Panlabs enzyme assay (Eurofins_assay_114110); conditions: Compound concentration 10.0 uM
[12] = target: Matrix metalloproteinase-14 (Homo sapiens) (UniProt P50281); assay: Peptidase, Matrix Metalloproteinase-14 (MMP-14) Eurofins-Panlabs enzyme assay; parameters: substrate with concentration; conditions: Compound concentration 10.0 uM
[13] = target: Coagulation factor X (Homo sapiens) (UniProt P00742); assay: Peptidase, Factor Xa Eurofins-Panlabs enzyme assay; parameters: substrate with concentration; conditions: Compound concentration 10.0 uM
Coagulation factor X (Homo sapiens), sequence (P00742 41-179 limits assumed): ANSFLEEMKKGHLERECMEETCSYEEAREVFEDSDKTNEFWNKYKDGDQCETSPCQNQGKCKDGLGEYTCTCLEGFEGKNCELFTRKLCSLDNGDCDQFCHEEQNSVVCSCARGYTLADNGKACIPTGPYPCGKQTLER
Coagulation factor X (Homo sapiens), sequence (P00742 235-488 limits assumed): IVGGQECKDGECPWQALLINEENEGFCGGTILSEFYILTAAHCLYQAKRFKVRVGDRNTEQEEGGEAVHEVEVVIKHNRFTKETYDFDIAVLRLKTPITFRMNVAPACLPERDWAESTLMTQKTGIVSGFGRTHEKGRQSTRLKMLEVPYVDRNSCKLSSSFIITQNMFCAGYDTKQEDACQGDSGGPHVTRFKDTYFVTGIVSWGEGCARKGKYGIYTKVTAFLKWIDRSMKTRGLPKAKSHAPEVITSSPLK

[14] = target: Coagulation factor VII (Homo sapiens) (UniProt P08709); assay: Peptidase, Factor VIIa Eurofins-Panlabs enzyme assay; parameters: substrate with concentration; conditions: Compound concentration 10.0 uM
Coagulation factor VII (Homo sapiens), sequence (P08709 61-212 limits assumed): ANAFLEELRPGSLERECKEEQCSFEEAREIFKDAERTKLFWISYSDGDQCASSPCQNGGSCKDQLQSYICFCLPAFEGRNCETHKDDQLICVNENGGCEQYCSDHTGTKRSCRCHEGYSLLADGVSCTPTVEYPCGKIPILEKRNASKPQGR
Coagulation factor VII (Homo sapiens), sequence (P08709 213-466 limits assumed): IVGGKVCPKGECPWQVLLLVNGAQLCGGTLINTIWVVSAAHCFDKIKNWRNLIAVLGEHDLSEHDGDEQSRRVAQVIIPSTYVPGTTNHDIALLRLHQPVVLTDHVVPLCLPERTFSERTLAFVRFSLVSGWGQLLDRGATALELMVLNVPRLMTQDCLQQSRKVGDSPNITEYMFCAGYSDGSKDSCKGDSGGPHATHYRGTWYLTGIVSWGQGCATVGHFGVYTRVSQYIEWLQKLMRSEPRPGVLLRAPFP

[15] = target: Sodium-dependent noradrenaline transporter (Homo sapiens) (UniProt P23975); conditions: Compound concentration 10.0 uM
Sodium-dependent noradrenaline transporter (Homo sapiens), sequence (P23975 whole entry): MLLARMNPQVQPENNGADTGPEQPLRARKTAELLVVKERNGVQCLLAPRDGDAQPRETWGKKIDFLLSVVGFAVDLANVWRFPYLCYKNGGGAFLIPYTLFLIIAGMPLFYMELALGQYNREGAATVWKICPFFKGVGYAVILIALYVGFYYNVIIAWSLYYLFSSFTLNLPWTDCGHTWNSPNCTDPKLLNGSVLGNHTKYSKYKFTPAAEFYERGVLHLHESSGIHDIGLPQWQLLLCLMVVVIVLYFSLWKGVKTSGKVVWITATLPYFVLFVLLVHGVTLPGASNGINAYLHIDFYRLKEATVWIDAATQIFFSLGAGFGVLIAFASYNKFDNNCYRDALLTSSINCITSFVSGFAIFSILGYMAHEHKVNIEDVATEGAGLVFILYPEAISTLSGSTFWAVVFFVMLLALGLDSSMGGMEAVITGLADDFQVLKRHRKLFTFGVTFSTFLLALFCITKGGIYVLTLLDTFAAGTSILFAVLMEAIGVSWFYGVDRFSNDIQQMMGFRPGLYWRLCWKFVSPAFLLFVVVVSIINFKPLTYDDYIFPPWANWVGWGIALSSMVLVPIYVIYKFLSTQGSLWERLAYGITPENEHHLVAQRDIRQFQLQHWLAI

[16] = target: T1, 5-hydroxytryptamine receptor 3A (Homo sapiens) (UniProt P46098); assay: Inhibition of Serotonin (5-Hydroxytryptamine) 5-HT3 at 10 µM in the Eurofins-Panlabs radioligand binding assay (Eurofins_assay_271910); parameters: ligand concentration 0.69 nM; conditions: Compound concentration 10.0 uM
T1 sequence (whole entry): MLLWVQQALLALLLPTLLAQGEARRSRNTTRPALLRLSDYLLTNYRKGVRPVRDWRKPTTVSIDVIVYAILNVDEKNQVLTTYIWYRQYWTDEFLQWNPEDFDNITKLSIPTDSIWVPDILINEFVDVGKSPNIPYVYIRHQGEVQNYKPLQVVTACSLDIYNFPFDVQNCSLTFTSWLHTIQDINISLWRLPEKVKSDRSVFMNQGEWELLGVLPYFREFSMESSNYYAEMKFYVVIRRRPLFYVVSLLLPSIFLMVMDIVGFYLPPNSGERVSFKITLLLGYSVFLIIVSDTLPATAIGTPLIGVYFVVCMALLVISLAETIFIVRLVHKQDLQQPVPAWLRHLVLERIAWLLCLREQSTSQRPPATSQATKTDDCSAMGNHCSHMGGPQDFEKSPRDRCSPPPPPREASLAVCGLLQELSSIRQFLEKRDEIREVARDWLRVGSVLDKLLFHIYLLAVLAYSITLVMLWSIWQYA

Rattus norvegicus [17] = species on record: Rattus norvegicus; conditions: Compound concentration 10.0 uM
[18] = target: Collagenase 3 (Homo sapiens) (UniProt P45452); assay: Peptidase, Matrix Metalloproteinase-13 (MMP-13) Eurofins-Panlabs enzyme assay; parameters: substrate with concentration; conditions: Compound concentration 10.0 uM
[19] = target: Thromboxane-A synthase (Homo sapiens) (UniProt P24557); assay: Thromboxane Synthase Eurofins-Panlabs enzyme assay; conditions: Compound concentration 10.0 uM
Rattus norvegicus [20] = species on record: Rattus norvegicus; assay: Protein Serine/Threonine Kinase, PKC, Non-Selective Eurofins-Panlabs enzyme assay; conditions: Compound concentration 10.0 uM
MAO-B = MAO-B (Homo sapiens, UniProt P27338); assay: Inhibition of Monoamine Oxidase MAO-B at compound concentration of 10.0 uM in the Eurofins-Panlabs enzyme assay (Eurofins_assay_140120); parameters: substrate with concentration 50 uM Kynuramine, incubation time 60 min, incubation temperature 37 C; conditions: recombinant human MAO-B expressed in insect Hi5 cells, probe Kynuramine, 50 uM, compound concentration 10 uM
MAO-B, sequence (P27338 whole entry): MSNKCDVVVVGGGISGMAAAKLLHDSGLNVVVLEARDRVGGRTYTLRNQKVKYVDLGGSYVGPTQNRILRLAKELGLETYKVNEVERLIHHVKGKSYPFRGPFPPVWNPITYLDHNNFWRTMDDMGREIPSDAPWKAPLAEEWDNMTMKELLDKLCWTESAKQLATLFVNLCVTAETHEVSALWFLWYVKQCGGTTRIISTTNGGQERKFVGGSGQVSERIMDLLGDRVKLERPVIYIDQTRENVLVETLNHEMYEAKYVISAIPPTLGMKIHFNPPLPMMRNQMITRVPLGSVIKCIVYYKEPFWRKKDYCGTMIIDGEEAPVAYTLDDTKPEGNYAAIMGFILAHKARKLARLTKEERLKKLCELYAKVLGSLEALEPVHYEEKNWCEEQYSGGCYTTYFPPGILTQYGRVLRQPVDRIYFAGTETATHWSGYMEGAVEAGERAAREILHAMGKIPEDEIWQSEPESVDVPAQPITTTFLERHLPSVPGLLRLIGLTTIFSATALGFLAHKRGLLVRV

[21] = target: Sodium-dependent serotonin transporter (Homo sapiens) (UniProt P31645); assay: Transporter, Serotonin (5- Hydroxytryptamine) (SERT) Eurofins-Panlabs radioligand binding assay; parameters: ligand concentration 0.15 nM, non-specific ligand with concentration 10 µM Imipramine, incubation time 3 h, incubation temperature 4 °C; conditions: Compound concentration 10.0 uM
[22] = target: Receptor tyrosine-protein kinase erbB-2 (Homo sapiens) (UniProt P04626); assay: Protein Tyrosine Kinase, ERBB2 (HER2) Eurofins-Panlabs enzyme assay; conditions: Compound concentration 10.0 uM
Receptor tyrosine-protein kinase erbB-2 (Homo sapiens), sequence (P04626 whole entry): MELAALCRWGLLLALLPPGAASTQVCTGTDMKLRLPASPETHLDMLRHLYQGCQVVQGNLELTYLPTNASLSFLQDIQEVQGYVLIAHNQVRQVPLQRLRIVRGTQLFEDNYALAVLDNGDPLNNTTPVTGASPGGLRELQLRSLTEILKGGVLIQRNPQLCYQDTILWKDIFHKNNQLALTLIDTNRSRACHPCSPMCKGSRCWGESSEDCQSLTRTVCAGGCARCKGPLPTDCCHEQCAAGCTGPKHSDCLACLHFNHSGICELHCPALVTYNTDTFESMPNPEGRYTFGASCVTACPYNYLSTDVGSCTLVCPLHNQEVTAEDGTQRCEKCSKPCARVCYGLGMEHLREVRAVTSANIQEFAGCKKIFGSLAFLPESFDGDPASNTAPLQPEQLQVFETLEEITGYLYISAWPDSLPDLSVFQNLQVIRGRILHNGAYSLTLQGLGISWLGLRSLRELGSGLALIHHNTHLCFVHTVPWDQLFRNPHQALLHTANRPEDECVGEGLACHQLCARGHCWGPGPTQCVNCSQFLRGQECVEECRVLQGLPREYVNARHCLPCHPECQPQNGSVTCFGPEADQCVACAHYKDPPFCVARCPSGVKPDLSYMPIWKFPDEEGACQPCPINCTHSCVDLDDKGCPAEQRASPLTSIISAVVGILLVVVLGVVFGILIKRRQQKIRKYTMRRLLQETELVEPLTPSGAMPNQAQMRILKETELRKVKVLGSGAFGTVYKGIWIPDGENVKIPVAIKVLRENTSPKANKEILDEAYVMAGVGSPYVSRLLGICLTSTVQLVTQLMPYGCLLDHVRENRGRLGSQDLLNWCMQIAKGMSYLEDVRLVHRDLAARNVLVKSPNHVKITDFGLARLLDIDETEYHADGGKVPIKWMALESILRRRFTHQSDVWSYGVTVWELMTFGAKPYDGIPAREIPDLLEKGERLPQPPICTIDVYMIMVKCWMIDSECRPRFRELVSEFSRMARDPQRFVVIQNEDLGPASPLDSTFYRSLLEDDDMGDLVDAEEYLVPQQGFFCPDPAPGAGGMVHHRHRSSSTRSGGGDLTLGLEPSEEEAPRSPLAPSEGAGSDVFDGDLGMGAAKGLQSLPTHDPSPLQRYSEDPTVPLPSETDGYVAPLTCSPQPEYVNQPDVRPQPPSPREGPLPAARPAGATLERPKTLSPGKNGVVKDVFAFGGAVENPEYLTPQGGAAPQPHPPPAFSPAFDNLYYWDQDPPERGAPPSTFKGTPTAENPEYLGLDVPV

Bos taurus = species on record: Bos taurus; assay: Protein Serine/Threonine Kinase, PKA, Non-Selective Eurofins-Panlabs enzyme assay; type: protein-complex assay; parameters: substrate with concentration 370 µg/mL Histone Type III-S, incubation time 15 min, incubation temperature 25 °C; conditions: Compound concentration 10.0 uM
[23] = target: Protein phosphatase 3 catalytic subunit alpha (Homo sapiens) (UniProt Q08209); assay: Protein Serine/Threonine Phosphatase, Calcineurin, PP2B Eurofins-Panlabs enzyme assay; conditions: Compound concentration 10.0 uM
[24] = target: Cathepsin G (Homo sapiens) (UniProt P08311); assay: Inhibition of Peptidase, CTSG (Cathepsin G) at 10 µM in the Eurofins-Panlabs enzyme assay (Eurofins_assay_112510); parameters: substrate with concentration; conditions: Compound concentration 10.0 uM
Cathepsin G (Homo sapiens), sequence (P08311 whole entry): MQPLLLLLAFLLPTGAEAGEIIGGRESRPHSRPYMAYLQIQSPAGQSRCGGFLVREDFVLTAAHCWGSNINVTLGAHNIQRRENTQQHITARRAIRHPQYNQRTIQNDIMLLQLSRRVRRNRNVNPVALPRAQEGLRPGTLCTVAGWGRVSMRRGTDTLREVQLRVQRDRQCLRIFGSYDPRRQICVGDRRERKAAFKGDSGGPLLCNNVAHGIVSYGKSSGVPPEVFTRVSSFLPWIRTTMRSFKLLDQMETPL

[25] = target: Alpha-1D adrenergic receptor (Homo sapiens, UniProt P25100); assay: GPCRScan assay: inhibition of Alpha1D; parameters: radioligand conc. used [nm] 0.3 – 1.0, parental cells stable
[26] = target: Sodium-dependent dopamine transporter (Homo sapiens, UniProt Q01959); assay: GPCRScan assay: inhibition of DAT; parameters: radioligand conc. used [nm] 3.6 – 16.0, parental cells stable HEK
Sodium-dependent dopamine transporter, sequence (Q01959 whole entry): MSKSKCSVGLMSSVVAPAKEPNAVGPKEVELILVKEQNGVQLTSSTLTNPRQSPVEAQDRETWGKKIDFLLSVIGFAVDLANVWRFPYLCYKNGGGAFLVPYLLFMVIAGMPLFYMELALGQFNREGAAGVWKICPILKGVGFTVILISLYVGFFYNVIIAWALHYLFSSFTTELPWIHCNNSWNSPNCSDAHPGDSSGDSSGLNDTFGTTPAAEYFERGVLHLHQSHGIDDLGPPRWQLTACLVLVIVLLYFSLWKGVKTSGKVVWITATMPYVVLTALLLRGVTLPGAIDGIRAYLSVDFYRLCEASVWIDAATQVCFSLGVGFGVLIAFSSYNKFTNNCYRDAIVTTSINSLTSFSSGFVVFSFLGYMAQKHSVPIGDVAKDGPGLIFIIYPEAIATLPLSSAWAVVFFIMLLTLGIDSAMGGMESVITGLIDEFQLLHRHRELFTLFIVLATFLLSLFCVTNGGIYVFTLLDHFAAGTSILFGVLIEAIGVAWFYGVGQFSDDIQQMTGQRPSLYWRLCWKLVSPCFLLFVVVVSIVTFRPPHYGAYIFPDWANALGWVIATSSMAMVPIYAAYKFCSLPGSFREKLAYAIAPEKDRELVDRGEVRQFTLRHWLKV

Canis lupus familiaris = species on record: Canis lupus familiaris; assay: ATPase, Na+/K+ Eurofins-Panlabs enzyme assay; conditions: Compound concentration 10.0 uM
D(3) dopamine receptor = D(3) dopamine receptor (Homo sapiens, UniProt P35462); assay: GPCRScan assay: inhibition of D3; parameters: radioligand conc. used [nm] 0.5 – 1.8, parental cells HEKT
[27] = target: cGMP-specific 3',5'-cyclic phosphodiesterase (Homo sapiens) (UniProt O76074); conditions: Compound concentration 10.0 uM

Delta-type opioid receptor (Homo sapiens), sequence (P41143 whole entry): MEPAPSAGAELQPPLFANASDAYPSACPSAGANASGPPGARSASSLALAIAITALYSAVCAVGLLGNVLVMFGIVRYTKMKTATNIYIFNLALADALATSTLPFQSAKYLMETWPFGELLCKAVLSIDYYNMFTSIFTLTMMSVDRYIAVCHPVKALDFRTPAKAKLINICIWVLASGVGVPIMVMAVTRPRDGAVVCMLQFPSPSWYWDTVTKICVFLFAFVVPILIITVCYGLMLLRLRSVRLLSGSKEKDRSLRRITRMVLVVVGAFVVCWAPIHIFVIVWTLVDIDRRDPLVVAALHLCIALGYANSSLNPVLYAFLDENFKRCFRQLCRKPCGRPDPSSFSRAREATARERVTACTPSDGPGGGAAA

## Cc1cc(OC2CCS(=O)(=O)CC2)cc(C)c1-c1cccc(COc2ccc(C(=O)O)c(F)c2)c1
Rattus norvegicus [1]
  inhibition: -3%
[2]
  inhibition: -7.07%
[3]
  Ki: 2750 nM
  pKi: 5.56
Homo sapiens [4]
  inhibition: -5%
[5]
  inhibition: -4.72%
[6]
  inhibition: -1%
[7]
  inhibition: -1%

## Cc1cc(OC2CCS(=O)(=O)CC2)cc(C)c1-c1cccc(COc2ccc(CCC(=O)O)c(F)c2)c1
[8]
  inhibition: 0%
D(4) dopamine receptor
  Ki: 1230 nM
[9]
  inhibition: 30%
Homo sapiens [10]
  inhibition: 60%
[11]
  inhibition: 2%
[12]
  inhibition: 3%
[13]
  inhibition: 2%
[14]
  inhibition: -10%
[15]
  inhibition: 19.1%
[16]
  inhibition: -3%
Rattus norvegicus [17]
  inhibition: -0.04%
[18]
  inhibition: 5%
[19]
  inhibition: 64%
Rattus norvegicus [20]
  inhibition: -8%
MAO-B
  inhibition at 60 min, 10 µM: 6% (not active)
[21]
  inhibition: -5%
[22]
  inhibition: -9%
Bos taurus
  inhibition: 5%
[23]
  inhibition: 10%
[24]
  inhibition: 20%
[25]
  Ki: 7520 nM
[26]
  Ki: > 10000 nM
  pKi: < 5
Canis lupus familiaris
  inhibition: 4%
D(3) dopamine receptor
  Ki: 925 nM
[27]
  inhibition: -6%
